Assay results published in patent publication US20260097022A1, “COMPOUNDS AND USES THEREOF” (Integrated Biosciences, Inc., priority 2023, published 2026).

System: etoposide-treated IMR-90 cells
Experiment: Etoposide-induced senescence model, resazurin cell viability (screen and dose-response)
Assay type: cell-based, human
Conditions: 1 μM, 3 days
Method: Cell culture. Human lung fibroblast (IMR-90) cells were obtained from ATCC (CCL-186) and passaged less than 10 times (less than 30 population doublings) for all experiments described in this example, with the exception of high-passage cells used in the model of replicative senescence (see the section on Replicative senescence below). Cells were cultured in growth media comprising Eagle's Minimum Essential Medium (EMEM: ATCC 30-2003) supplemented with 10% fetal bovine serum (FBS: Thermo Fisher 16140071) and 1% penicillin-streptomycin (Thermo Fisher 15070063). Cells were incubated in a humidity-controlled incubator at 37° C., with 5% CO2. Cells were detached using trypsin-EDTA (0.05%; Gibco 25300120).
Etoposide-induced senescence. IMR-90 cells were cultured as described above. At between 30 to 50% confluence, the media was replaced with complete growth media containing vehicle (0.5% dimethyl sulfoxide: DMSO, MilliporeSigma D5879) or complete growth media containing 50 μM etoposide (prepared as a 1:200 dilution of a 10 mM stock solution in DMSO; etoposide, MilliporeSigma E1383). Cells were treated for 2 days, after which the media was replaced with fresh growth media and cells were allowed to recover for 4 days. Cells were then plated as described below.
Chemical screening. For all screening experiments. 99 μL of cells were plated into each well of a 96-well clear flat-bottom, black polystyrene tissue-culture-treated plate (Corning 3904) at a density of ˜10+ cells/well. Plates were incubated overnight for adhesion. The day after plating. 1 μL of each compound, prepared as either a 1 mM stock solution in DMSO (10 μM final concentration screen) or 0.1 mM stock solution in DMSO (1 μM final concentration screen), was added to each well using an Agilent Bravo liquid handler. A built-in slow mixing step involving aspirating and dispensing was used to enhance distribution of the added compounds in solution. Cells were incubated for 3 days, after which resazurin (MilliporeSigma R^7017) was added to each well to a final concentration of 0.15 mM. After an additional 1 day of incubation, the fluorescence excitation/emission at 550/590 nm was read using a SpectraMaxR M3 plate reader and manufacturer software (SoftMax Pro R 6). Experiments were performed in biological duplicate.
Three-fold serial dilutions of compound were prepared in DMSO, then added to cell plates (final concentration of DMSO. 1%). Cell viability was then assayed as detailed above, and resazurin fluorescence values were linearly interpolated with respect to values from empty and positive control (non-treatment) wells. Experiments were performed in biological duplicate each on two independent occasions. When possible, chemical stocks from commercial suppliers were used: econazole nitrate (Cayman Chemical 20223), artenimol (Cayman Chemical 19846), and ABT-263 (Cayman Chemical 11500) were from Cayman Chemical, and dehydrodeguelin was aliquoted from the screening library.
Calculation of cellular viability values in dose-response curves. […] For each sample, the fluorescence intensity value was normalized by the mean of two untreated control values. Cellular viability values are therefore indicated as fractions of the cellular viability of untreated controls. Vehicle (1% DMSO) control values are included in each dose-response curve. Experiments were performed in biological duplicate each on two independent occasions.
Calculation of baseline cellular viability values. […] Additionally, baseline cellular viability values were calculated for untreated cells at the start of the experiment. Resazurin was added to a final concentration of 0.15 mM on the day of seeding (corresponding to day 0 in FIG. 7).

SMILES	senolytic activity in screen
Cc1c(-c2ccc(N3CCc4cccc(C(=O)Nc5nc6ccccc6s5)c4C3)nc2C(=O)O)cnn1CC12CC3CC(CC(C3)C1)C2 [A-1331852, reference compound]	inactive
Cc1noc(NS(=O)(=O)c2ccc(N)cc2)c1C [sulfisoxazole, reference compound]	active

Same assay, conditions: 10 μM, 3 days; active: control viability >0.5, Snc/control ratio <0.7

SMILES	senolytic activity in screen
Cc1c(-c2ccc(N3CCc4cccc(C(=O)Nc5nc6ccccc6s5)c4C3)nc2C(=O)O)cnn1CC12CC3CC(CC(C3)C1)C2 [A-1331852, reference compound]	active

Same assay, conditions: etoposide-induced senescence model; ratio of IC50 values between etoposide- and DMSO-treated IMR-90 fibroblasts

SMILES	Therapeutic Index (TI)
CCCCOc1ccc(C(=O)Nc2ccc3nc(SCC(=O)Nc4ccccc4)sc3c2)cc1 [compound 76]	++ (compounds with a TI of 1 to 5 were labelled as ++)
Cc1ccc(C(=O)Nc2ccc3nc(SCC(=O)N4CCc5ccccc54)sc3c2)cc1 [compound 18]	+++ (compounds with a TI of >5 were labeled as +++)
Cc1ccccc1C(=O)Nc1ccc2nc(SCC(=O)Nc3cccc(Cl)c3)sc2c1 [compound 107]	++ (compounds with a TI of 1 to 5 were labelled as ++)
Cc1ccccc1C(=O)Nc1ccc2nc(SCC(N)=O)sc2c1 [compound 75]	++ (compounds with a TI of 1 to 5 were labelled as ++)
CCOc1ccc(NC(=O)CSc2nc3ccc(NC(=O)c4ccccc4OC)cc3s2)cc1 [compound 40]	++ (compounds with a TI of 1 to 5 were labelled as ++)
COc1cccc(C(=O)Nc2ccc3nc(SCC(=O)Nc4ccccc4C)sc3c2)c1 [compound 165]	+ (Compounds with a TI of <1 were labelled as +)
Cc1cccc(C(=O)Nc2ccc3nc(SCC(=O)Nc4cc(Cl)ccc4C)sc3c2)c1 [compound 70]	++ (compounds with a TI of 1 to 5 were labelled as ++)
CCOc1ccc(C(=O)Nc2ccc3nc(SCC(=O)Nc4ccc(F)cc4)sc3c2)cc1 [compound 120]	++ (compounds with a TI of 1 to 5 were labelled as ++)
Cc1ccc(C(=O)Nc2ccc3nc(SCC(=O)N(C)c4ccccc4)sc3c2)cc1 [compound 81]	++ (compounds with a TI of 1 to 5 were labelled as ++)
CC(=O)c1ccc(NC(=O)CSc2nc3ccc(NC(=O)c4ccc(C)cc4)cc3s2)cc1 [compound 154]	+ (Compounds with a TI of <1 were labelled as +)
O=C(CSc1nc2ccc(NC(=O)c3ccccc3)cc2s1)Nc1ccccc1C(F)(F)F [compound 128]	++ (compounds with a TI of 1 to 5 were labelled as ++)
COC(=O)c1ccccc1NC(=O)CSc1nc2ccc(NC(=O)c3ccccc3C)cc2s1 [compound 67]	++ (compounds with a TI of 1 to 5 were labelled as ++)
COc1ccc(NC(=O)CSc2nc3ccc(NC(=O)c4ccc(C)cc4)cc3s2)cc1 [compound 115]	++ (compounds with a TI of 1 to 5 were labelled as ++)
Cc1cccc(NC(=O)CSc2nc3ccc(NC(=O)c4cccc5ccccc45)cc3s2)c1C [compound 102]	++ (compounds with a TI of 1 to 5 were labelled as ++)
CCOc1ccc(NC(=O)C(C)Sc2nc3ccc(NC(=O)c4ccc(OC)cc4)cc3s2)cc1 (stereo not shown) [compound 41]	++ (compounds with a TI of 1 to 5 were labelled as ++)
CCCCOc1ccc(NC(=O)CSc2nc3ccc(NC(=O)c4ccc(C)cc4)cc3s2)cc1 [compound 34]	++ (compounds with a TI of 1 to 5 were labelled as ++)
COc1cccc(C(=O)Nc2ccc3nc(SCC(=O)Nc4ccc(C)cc4)sc3c2)c1 [compound 13]	+++ (compounds with a TI of >5 were labeled as +++)
COc1ccc(OC)c(NC(=O)CSc2nc3ccc(NC(=O)c4ccccc4C)cc3s2)c1 [compound 16]	+++ (compounds with a TI of >5 were labeled as +++)
Cc1ccccc1C(=O)Nc1ccc2nc(SCC(=O)Nc3ccc(C(C)C)cc3)sc2c1 [compound 151]	+ (Compounds with a TI of <1 were labelled as +)
O=C(CSc1nc2ccc(NC(=O)c3ccccc3F)cc2s1)NC1CC1 [compound 116]	++ (compounds with a TI of 1 to 5 were labelled as ++)
CCc1ccc(NC(=O)CSc2nc3ccc(NC(=O)c4ccccc4OC)cc3s2)cc1 [compound 123]	++ (compounds with a TI of 1 to 5 were labelled as ++)
CCOc1ccccc1NC(=O)CSc1nc2ccc(NC(=O)c3ccccc3Cl)cc2s1 [compound 26]	+++ (compounds with a TI of >5 were labeled as +++)

SMILES	Therapeutic Index (TI)
COc1ccc(CNC(=O)CSc2nc3ccc(NC(=O)c4ccccc4C)cc3s2)cc1 [compound 161]	+ (Compounds with a TI of <1 were labelled as +)
COc1ccccc1C(=O)Nc1ccc2nc(SCC(=O)Nc3ccc(C(C)C)cc3)sc2c1 [compound 155]	+ (Compounds with a TI of <1 were labelled as +)
O=C(CSc1nc2ccc(NC(=O)c3ccc(F)cc3)cc2s1)Nc1cccc(Cl)c1 [compound 51]	++ (compounds with a TI of 1 to 5 were labelled as ++)
Cc1cc(C)c(NC(=O)C(C)Sc2nc3ccc(NC(=O)c4ccccc4)cc3s2)c(C)c1 (stereo not shown) [compound 139]	++ (compounds with a TI of 1 to 5 were labelled as ++)
COc1ccc(NC(=O)CSc2nc3ccc(NC(=O)c4ccccc4C)cc3s2)cc1 [compound 52]	++ (compounds with a TI of 1 to 5 were labelled as ++)
Cc1ccccc1C(=O)Nc1ccc2nc(SCC(=O)Nc3ccccc3F)sc2c1 [compound 29]	++ (compounds with a TI of 1 to 5 were labelled as ++)
COc1ccccc1C(=O)Nc1ccc2nc(SCC(=O)N(C)c3ccccc3)sc2c1 [compound 71]	++ (compounds with a TI of 1 to 5 were labelled as ++)
O=C(CSc1nc2ccc(NC(=O)c3ccccc3)cc2s1)Nc1ccc(Br)cc1 [compound 137]	++ (compounds with a TI of 1 to 5 were labelled as ++)
COc1ccc(NC(=O)CSc2nc3ccc(NC(=O)c4cccc(OC)c4)cc3s2)cc1 [compound 12]	+++ (compounds with a TI of >5 were labeled as +++)
Cc1ccc(C(=O)Nc2ccc3nc(SCC(=O)Nc4ccccc4F)sc3c2)cc1 [compound 56]	++ (compounds with a TI of 1 to 5 were labelled as ++)
CCC(Sc1nc2ccc(NC(=O)c3ccc(C)cc3)cc2s1)C(=O)Nc1ccc(Cl)cc1 (stereo not shown) [compound 65]	++ (compounds with a TI of 1 to 5 were labelled as ++)
CC(=O)Nc1ccc(NC(=O)CSc2nc3ccc(NC(=O)c4ccc(C)cc4)cc3s2)cc1 [compound 133]	++ (compounds with a TI of 1 to 5 were labelled as ++)
COc1ccccc1C(=O)Nc1ccc2nc(SCC(=O)Nc3c(C)cc(C)cc3C)sc2c1 [compound 44]	++ (compounds with a TI of 1 to 5 were labelled as ++)
COc1ccc(C(=O)Nc2ccc3nc(SCC(=O)Nc4ccc(C)cc4C)sc3c2)cc1 [compound 11]	+++ (compounds with a TI of >5 were labeled as +++)
Cc1ccc(NC(=O)CSc2nc3ccc(NC(=O)c4ccccc4)cc3s2)cc1Cl [compound 37]	++ (compounds with a TI of 1 to 5 were labelled as ++)
Cc1cccc(NC(=O)CSc2nc3ccc(NC(=O)c4ccccc4F)cc3s2)c1C [compound 27]	+++ (compounds with a TI of >5 were labeled as +++)
COc1ccc(NC(=O)CSc2nc3ccc(NC(=O)c4ccccc4Cl)cc3s2)cc1 [compound 66]	++ (compounds with a TI of 1 to 5 were labelled as ++)
O=C(CSc1nc2ccc(NC(=O)c3cccc4ccccc34)cc2s1)Nc1ccccc1F [compound 92]	++ (compounds with a TI of 1 to 5 were labelled as ++)
Cc1cccc(C(=O)Nc2ccc3nc(SCC(=O)Nc4ccccc4)sc3c2)c1 [compound 106]	++ (compounds with a TI of 1 to 5 were labelled as ++)
CCC(Sc1nc2ccc(NC(=O)c3ccccc3)cc2s1)C(=O)Nc1ccc(C(C)=O)cc1 (stereo not shown) [compound 15]	+++ (compounds with a TI of >5 were labeled as +++)
CCCCOc1ccc(NC(=O)CSc2nc3ccc(NC(=O)c4ccc(C(C)(C)C)cc4)cc3s2)cc1 [compound 9]	+++ (compounds with a TI of >5 were labeled as +++)
